Laboratory results reported in paper PMC3397457, “Preclinical Evaluation of Anticancer Efficacy and Pharmacological Properties of FBA-TPQ, a Novel Synthetic Makaluvamine Analog” (Marine Drugs, 2012).

Legend:
Mia PaCa-2 cells [1] = experiment: MTT cell survival assay, Mia PaCa-2; assay type: cell-based; settings: Homo sapiens, Mia PaCa-2, 72 h, read-out: Cytotoxicity IC50
Method: (§1) We evaluated the effects of FBA-TPQ on the survival of several human pancreatic cancer cell lines, including HPAC (p53^+/+), Panc-1(p53^+/−), and Mia PaCa-2(p53^+/−), as well as normal IRM90 fetal fibroblast cells (Figure 2a). Cells were exposed to various concentrations of the test compound (0–10 µM) for 72 h, and cell survival rates were determined by the MTT assay, using a procedure reported previously. FBA-TPQ exerted potent effects against the test cancer cell lines, leading to significant decreases in cell viability.
(§2) Human pancreatic cancer cells were obtained from the American Type Culture Collection (Rockville, MD). All cell culture media contained 10% FBS and 1% penicillin/streptomycin. […]
(§3) The effect of the test compound on human pancreatic cancer cell viability, expressed as the percentage of cell survival, was determined using the MTT (3-(4,5-dimethylthiazol-2-yl)-2,5-diphenyl tetrazolium bromide) assay. […] The absorbance at 570 nm was recorded using an OPTImax microplate reader (Molecular Devices; Sunnyvale, CA, USA). The cell survival percentages were calculated by dividing the mean OD of compound-containing wells by that of DMSO-containing control wells. […]

[2] = system: prostate, breast, and ovarian cancer cell lines; parameters: method as in PMID 19274441, PMID 19451594, PMID 21673964; settings: cited from earlier work
Panc-1 cells [3] = experiment: Annexin V apoptosis assay/flow cytometry, Panc-1; assay type: cell-based, human; settings: Panc-1, 1 µM, 48 h
Method: The apoptotic cells were detected using a method reported previously. […] In HPAC cells, a 1 µM concentration of FBA-TPQ increased the apoptotic index two-fold higher than that seen in control cells (P < 0.01). […] In the Mia PaCa-2 cells, FBA-TPQ at 1 µM led to a three-fold increase in apoptosis (P < 0.01).
Following a similar protocol as above, cells in early and late stages of apoptosis were detected using an Annexin V-FITC apoptosis detection kit from BioVision (Mountain View, CA, USA), according to the manufacturer’s protocol. For apoptosis experiments, 2–3 × 10^5 cells were exposed to the test compound (0, 0.1, 0.5 and 1.0 µM) and incubated for 48 h prior to analysis. Cells were collected and washed with serum-free media. Cells were then re-suspended in 500 µL of Annexin V binding buffer followed by addition of 5 µL of Annexin V-FITC and 5 µL of propidium iodide (PI). The samples were incubated in the dark for 5 min at room temperature and analyzed with a Becton Dickinson FACSCalibur instrument (Ex = 488 nm; Em = 530 nm). Cells that were positive for Annexin V-FITC alone (early apoptosis) and Annexin V-FITC and PI (late apoptosis) were counted. The apoptotic index was calculated against the untreated control cells.

[4] = system: human pancreatic cancer cell lines (HPAC, Panc-1, Mia PaCa-2); experiment: MTT cell survival assay, pancreatic cancer cell lines taken together; assay type: cell-based; settings: 72 h
Method: as §1
The effect of the test compound on human pancreatic cancer cell viability, expressed as the percentage of cell survival, was determined using the MTT (3-(4,5-dimethylthiazol-2-yl)-2,5-diphenyl tetrazolium bromide) assay. The MTT assay is colorimetric assay for measuring the activity of enzymes that reduce MTT to formazan dyes, giving a purple color. Cells were grown in 96-well plates at 4–5 × 10^3 cells per well and exposed to different concentrations of the test compound (0, 0.1, 0.25, 0.5, 0.75, 1, 5 and 10 µM). […] The absorbance at 570 nm was recorded using an OPTImax microplate reader (Molecular Devices; Sunnyvale, CA, USA). The cell survival percentages were calculated by dividing the mean OD of compound-containing wells by that of DMSO-containing control wells. […]

Mia PaCa-2 cells [5] = experiment: Cell cycle distribution by flow cytometry, Mia PaCa-2; assay type: cell-based, human; settings: Mia PaCa-2, 1 µM
Method: (§4) The effects of FBA-TPQ on cell cycle distribution were analyzed using the previously reported methods; its effects appeared to be cell-line-dependent (Figure 2c). […] The differences in the responses of the different cell lines may be related to their expression of p53.
(§5) To determine the effect of FBA-TPQ on the cell cycle, cells (2–3 × 10^5) were exposed to the test compounds (0, 0.1, 0.5 or 1 µM) and incubated for 24 h prior to analysis. Cells were trypsinized, washed with PBS, and fixed in 1.5 mL of 95% ethanol and 0.5 mL of 0.9% saline solution at 4 °C overnight, followed by incubation with RNAse and staining with propidium iodide (Sigma). The DNA content was determined by flow cytometry. The cell cycle distribution was evaluated by comparing with that of the control cells.

HPAC cells = experiment: Cell cycle distribution by flow cytometry, HPAC; assay type: cell-based, human; settings: 1 µM
Method: as §4, §5

Panc-1 cells [6] = experiment: MTT cell survival assay, Panc-1; assay type: cell-based; settings: Homo sapiens, Panc-1, 72 h, read-out: Cytotoxicity IC50
Method: as §1, §2, §3

## O=C1C(NCc2ccc(F)cc2)=CC2=NCCc3c[nH]c1c32 [FBA-TPQ, 7-(4-fluorobenzylamino)-1,3,4,8-tetrahydropyrrolo[4,3,2-de]quinolin-8(1H)-one]
Mia PaCa-2 cells [1]
  IC50: 320 ± 10 nM
[2]
  IC50 values: nanomolar/low micromolar
Panc-1 cells [3]
  increase in apoptosis vs control cells: four-fold
[4]
  differences in IC50, normal IMR90 fibroblasts vs pancreatic cancer cells: 10–50 fold
Mia PaCa-2 cells [5]
  cell cycle arrest: arrest in the S phase
HPAC cells
  cell cycle arrest: arrest in the G2/M phase
Panc-1 cells [6]
  IC50: 110 ± 10 nM
